Experimental data reported in patent US20170015654A1, “PYRIDAZINE COMPOUND” (TAKEDA PHARMACEUTICAL COMPANY LIMITED, priority 2014, published 2017).

Tests used:
SCD = biological target: T1, SCD (Rattus norvegicus, UniProt P07308); test: Measurement of SCD inhibitory activity using microsome (TLC detection system); assay type: biochemical; conditions: 1 μM compound; rat liver microsome fraction; [14C]stearoyl-CoA; read-out: Rate of inhibition of SCD activity at compound concentration of 1 μM
T1 construct: the obtained precipitate other than the glycogen layer was used as the microsome fraction; from tissue; host or cells: rat liver microsome fraction
T1 sequence (P07308 1-358): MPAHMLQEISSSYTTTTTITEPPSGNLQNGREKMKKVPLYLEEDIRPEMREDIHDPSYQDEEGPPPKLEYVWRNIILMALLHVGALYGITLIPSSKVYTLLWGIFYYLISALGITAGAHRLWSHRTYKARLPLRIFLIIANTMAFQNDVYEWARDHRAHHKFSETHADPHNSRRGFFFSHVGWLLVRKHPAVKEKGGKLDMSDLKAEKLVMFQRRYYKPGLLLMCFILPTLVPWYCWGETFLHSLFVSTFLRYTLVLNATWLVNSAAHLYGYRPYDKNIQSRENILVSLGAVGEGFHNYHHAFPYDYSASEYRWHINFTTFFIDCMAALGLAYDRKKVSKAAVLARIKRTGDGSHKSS
Description: Testing Method: Measurement of SCD Inhibitory Activity Using Microsome (TLC Detection System)
A microsome fraction was produced and preserved as follows: first, the liver was excised from a rat, thoroughly washed with PBS and then chopped. A microsome preparation buffer (0.25 M sucrose, 10 mM Tris-HCl, pH 7.4, protease inhibitor cocktail (F. Hoffmann-La Roche, Ltd.)) was added to the chopped liver, and the cells were disrupted using a POLYTORON homogenizer on ice. The homogenate thus obtained by the disruption was centrifuged at 10,000×g at 4° C. for 30 minutes to collect a supernatant. The centrifugation operation described above was repeated again for the obtained supernatant to obtain a supernatant again. The obtained supernatant was centrifuged at 40,000×g at 4° C. for 60 minutes, and the obtained precipitate other than the glycogen layer was used as the microsome fraction. The protein concentration of the microsome fraction was measured using BCA Protein Assay Kit (Pierce/Thermo Fisher Scientific, Inc.), and the microsome fraction was cryopreserved at −80° C. until use.
The SCD inhibitory activity of each test compound was measured as follows: first, the test compound was diluted into 10 mM with DMSO to obtain a primary dilution. The obtained primary dilution was diluted 3/1000 by the addition of 3× buffer (300 mM potassium phosphate, pH 7.4, 450 mM KCl, 30 mM NaF, 9 mM MgCl2, 4.5 mM glutathione reduced form (Wako Pure Chemical Industries, Ltd.), 0.3% BSA fatty acid free (Sigma-Aldrich Corp.) to obtain a secondary dilution. The secondary dilution was dispensed at 10 μL/well to a polypropylene 96-deep well block. Then, the microsome fraction diluted using a microsome buffer (10 mM Tris-HCl, pH 7.5, 250 mM sucrose) was added thereto at 10 μL/well (containing 10 μg of the protein). An enzyme reaction solution containing [^14C]stearoyl-CoA (American Radiolabeled Chemicals, Inc.) diluted into […] using 9 mM NADH (Sigma-Aldrich Corp.) was further added thereto at 10 μL/well. 30 minutes thereafter, 2.5 N NaOH was added thereto at 10 μL/well. After the completion of the addition, the deep well block was provided with a plate seal and then left standing overnight in a heat sterilizer set to 55° C. Subsequently to the standing, fatty acid extraction from the sample was carried out in accordance with the Bligh & Dyer method. Specifically, 200 μL of a formic acid:methanol:chloroform (1:6:3) solution was added to the sample thus left standing, and then, the mixture was stirred while the single-layer state was maintained. Further, 120 μL of pure water was added to the mixture to separate it into two layers. After the separation, a 10 μL aliquot was separated from the lower layer, spotted on a reverse-phase TLC plate (RP-18, 1154230001, Merck KGaA), and developed with an acetonitrile:pure water:acetic acid (95:4.5:0.5) solution. After drying, the TLC plate was transferred to Imaging Plate (Fuji Photo Film) for 5 hours or longer. Detection was carried out using FLA7000 (GE Healthcare Japan Corp.), and the obtained spot images were digitalized using ImageQuant TL (GE Healthcare Japan Corp.) to determine the rate of inhibition of SCD activity (%).

[1] = system: human large intestine cancer cell line HCT116; test: Antitumor effect on human large intestine cancer cell line HCT116 cancer-bearing mice; assay type: in vivo, mouse; conditions: 10 mg/kg, 2 doses per day, orally for 14 days; HCT116 cancer-bearing BALB/c nude mice; tumor growth vs control group
Description: The compound of the present invention was evaluated for its antitumor effect on human large intestine cancer cell line HCT116 cancer-bearing mice by the following method.
The human large intestine cancer cell line HCT116 (purchased from ATCC (American Type Culture Collection)) was transplanted to each 6-week-old BALB/c female nude mouse (BALB/cA Jcl nu/nu: CLEA Japan Inc.) by the subcutaneous injection of 1.0×10^6 cells. After the transplantation, successfully engrafted tumor was observed, and the tumor size was measured 10 to 14 days after the transplantation. The tumor volume was calculated according to the following expression:
Tumor volume=Major axis×Minor axis×Minor axis×(½)
Individuals in which the volume of the engrafted tumor reached approximately 150 mm^3 were selected and used in the experiment as groups each involving 5 to 8 individuals. Each test compound was suspended in a 0.5% methylcellulose solution and orally administered to each individual for 14 days using the dose and the number of doses shown in the table below. Finally, in order to measure drug effects, the tumor volume was calculated from the tumor sizes at the day before the start of the administration and at the final day of the administration, and tumor growth in the test compound administration group compared with a control administration group given only a 0.5% methylcellulose solution was calculated as T/C according to the following expression:
T/C (%)=(Tumor volume after the completion of the administration of the test compound administration group−Tumor volume at the day before the start of the administration of the test compound administration group)/(Tumor volume after the completion of the administration of the control administration group−Tumor volume at the day before the start of the administration of the control administration group)×100

| SMILES | inhibition at 1 µM (SCD) | T/C (%) [1] |
| --- | --- | --- |
| N#CC1(c2ccc(S(F)(F)(F)(F)F)cc2)CCN(c2ccc(-c3nnc(CO)o3)nn2)CC1 [Example 58, 1-(6-(5-(Hydroxymethyl)-1,3,4-oxadiazol-2-yl)pyridazin-3-yl)-4-(4-(pentafluorosulfanyl)phenyl)piperidine-4-carbonitrile] | 92% | 86.2% |
| COC1(c2ccc(S(F)(F)(F)(F)F)cc2)CCN(c2ccc(-c3nc(CO)ns3)nn2)CC1 [Example 110, (5-(6-(4-Methoxy-4-(4-(pentafluorosulfanyl)phenyl)piperidin-1-yl)pyridazin-3-yl)-1,2,4-thiadiazol-3-yl)methanol] | 94% | 64.8% |
| COC1(c2ccc(S(F)(F)(F)(F)F)cc2)CCN(c2ccc(-c3nnc(CO)s3)nn2)CC1 [Example 111, (5-(6-(4-Methoxy-4-(4-(pentafluorosulfanyl)phenyl)piperidin-1-yl)pyridazin-3-yl)-1,3,4-thiadiazol-2-yl)methanol] | 96% |  |
| OCc1nsc(-c2ccc(N3CCC(c4ccc(C(F)(F)F)cc4)(C(F)(F)F)CC3)nn2)n1 [Example 112, (5-(6-(4-(Trifluoromethyl)-4-(4-(trifluoromethyl)phenyl)piperidin-1-yl)pyridazin-3-yl)-1,2,4-thiadiazol-3-yl)methanol] | 96% | 53.7% |
| OCc1nnc(-c2ccc(N3CCC(c4ccc(C(F)(F)F)cc4)(C(F)(F)F)CC3)nn2)o1 [Example 84, (5-(6-(4-(Trifluoromethyl)-4-(4-(trifluoromethyl)phenyl)piperidin-1-yl)pyridazin-3-yl)-1,3,4-oxadiazol-2-yl)methanol] | 93% | 58.4% |
| COC1(c2ccc(S(F)(F)(F)(F)F)cc2)CCN(c2ccc(-c3nnc(CO)o3)nn2)CC1 [Example 93, (5-(6-(4-Methoxy-4-(4-(pentafluorosulfanyl)phenyl)piperidin-1-yl)pyridazin-3-yl)-1,3,4-oxadiazol-2-yl)methanol] | 94% | 58.1% |
| OCc1noc(-c2ccc(N3CCC(c4ccc(C(F)(F)F)cc4)(C(F)(F)F)CC3)nn2)n1 [Example 82, (5-(6-(4-(Trifluoromethyl)-4-(4-(trifluoromethyl)phenyl)piperidin-1-yl)pyridazin-3-yl)-1,2,4-oxadiazol-3-yl)methanol] | 95% |  |
| N#CC1(c2ccc(S(F)(F)(F)(F)F)cc2)CCN(c2ccc(-c3nnc(CO)s3)nn2)CC1 [Example 109, 1-(6-(5-(Hydroxymethyl)-1,3,4-thiadiazol-2-yl)pyridazin-3-yl)-4-(4-(pentafluorosulfanyl)phenyl)piperidine-4-carbonitrile] | 93% |  |
| N#CC1(c2ccc(S(F)(F)(F)(F)F)cc2)CCN(c2ccc(-c3nc(CO)ns3)nn2)CC1 [Example 108, 1-(6-(3-(Hydroxymethyl)-1,2,4-thiadiazol-5-yl)pyridazin-3-yl)-4-(4-(pentafluorosulfanyl)phenyl)piperidine-4-carbonitrile] | 95% |  |
| OCc1nnc(-c2ccc(N3CCC(c4ccc(C(F)(F)F)cc4)(C(F)(F)F)CC3)nn2)s1 [Example 113, (5-(6-(4-(Trifluoromethyl)-4-(4-(trifluoromethyl)phenyl)piperidin-1-yl)pyridazin-3-yl)-1,3,4-thiadiazol-2-yl)methanol] | 95% | 67.8% |
